Experiments:
[1] = CO2 gas bubbled through phosphido-borane salt in THF, NMR analysis; conditions: CO2 at 1 atm, room temperature
Method: Here 0.2218 g of the resulting phosphido-borane was dissolved in 3 ml of tetrahydrofuran (THF) in a 10 ml valve. Here 2 ml of THF was used to dissolve 0.1856 g of lithium bis(trimethylsilyl)amide (LiHMDS). The solution of LiHMDS was added drop wise to the solution of Li[Ph2PBH3] to minimize side reactions.
CO2 gas was then bubbled through lithiated anionic phosphido-borane salt at 1 atm and room temperature for about 10 mins to saturate it with CO2.
A typical one pot procedure for preparing the CO2 adducts was adding a solution of Ph2PHBH3 (5.314 mmol, in 4 ml of THF) to solution of MHMDs (5.314 mmol, in 4 ml of THF) dropwisely. An aliquot of the resulting was analyzed with the nmr to confirm the complete formation of M(Ph2PBH3) salt. The bulk solution was then saturated with CO2 gas under standard atmospheric pressure and temperature. The product was then crushed out with hexanes resulting in a whitish precipitate. Yield 98.5%

[2] = DFT transition state barrier for CO2 binding; conditions: Li+ coordinated to a CO2 oxygen and the hydrides of BH3−
Method: (§1) All Density Functional Theory calculations were performed using the Jaguar v10.9 software from Schrodinger Inc. All calculations utilized the M06-2X meta-GGA functional with the D3 empirical correction for London Dispersion forces.^21, 22
(§2) All atoms were described by the 6-311G**++ Pople basis set,^23 augmented with polarization and diffuse functions.
(§3) All calculations included a continuum solvent treatment described by the Polarizable Continuum Model (CPCM).^24
(§4) Unless otherwise noted, we used solvent parameters matching tetrahydrofuran (dielectric constant=7.6, probe radius=2.52).
(§5) Vibrational frequency calculations were performed to confirm that all geometries are true minima (no negative eigenmodes of the Hessian) and to compute thermochemical properties such as enthalpy (H), entropy (S), and free energies (G) at 298.15 K. Because librational modes are hindered in solvent media, we corrected our free energies by reducing translational and rotational entropy modes by 50%.

[3] = DFT-predicted CO2 binding free energy and charge/bond-order analysis of phosphido-boranes
Method: as §1, §2, §3, §4, §5

In the case of “anionic diphenylphosphido-borane [BoPh 4]”, the “CO2 binding observed in experiment” value ([1]; listed as LiPh2PBH3) is reported as “binds successfully with the CO2 molecule”, the “CO2 binding observed in experiment” value ([1]; listed as lithiated anionic phosphido-borane salt) is reported as “formation of P—CO2 adducts” and the “reduction of ΔG‡ relative to Na+” value [2] is reported as roughly 2 kcal/mol. For the same substance, the “increase in binding energy on increasing counterion distance” value ([3]; Li+ distance from the O—BH3 pocket increased by 0.35 Å) was “+5.9 kcal” and the “increase of overall ΔG by explicit solvation” value ([3]; explicit THF solvation vs continuum) was “+2.9 kcal/mol”.
